Two compounds from US20250049796A1, “USE OF 4-THIAZOL-N-(PYRIDIN-2-YL)PYRIMIDIN-2-AMINE DERIVATIVES IN COMBINATION THERAPIES FOR CANCER” (Aucentra Therapeutics Pty Ltd, priority 2022, published 2025) can be followed below.

The test system of data set [1] is CT26.WT colorectal cancer cells. The data set is described as follows: In vivo anti-tumour activity in CT26.WT syngeneic mouse model (second experiment). As for the experimental part: (§1) Murine triple-negative breast cancer EMT6 tumour cells (ATCC® CRL-2755™) and colorectal cancer CT26.WT cells (ATCC® CRL-2638™) were cultured and expanded in RPMI-1640 medium (Roswell Park Memorial Institute Medium-1640) with L-glutamine and sodium bicarbonate (Sigma-Aldrich, Macquarie Park, NSW, Australia) supplemented with 10% heat-inactivated foetal bovine serum (FBS). Cells were cultured in an incubator at 5% CO2 37° C.
(§2) In another experiment, mice bearing CT26.WT colorectal cancer cells were treated with vehicle (distilled water QD PO), compound 1 (100 mg/kg QD PO), an anti-PD-1 antibody ([…] ip), or compound 1 plus the anti-PD-1 antibody.

For data set [2], the system named is CD3+, CD4+, CDK8+ and CD45+ T-cells. Nature of the data set: Immune markers (T cell population in spleen) in CT26.WT-bearing treated mice. The data set is classed as in vivo, mouse. The procedure:
as §2

In another data set the test system is PDL-1. The data set is described as follows: PD-L1 level in samples of EMT6-bearing treated mice. It counts as in vivo, mouse (female BALB/c). The settings on record: spleen samples isolated two hours post-final dose, 150 mg/kg QD PO. As for the experimental part: (§3) EMT6 cells were harvested and re-suspended in a 1:1 mixture of Matrigel™ (#354234; Corning Life Sciences, Corning, NY, United States of America) and serum-free RPMI-1640 medium, and thereafter injected sub-cutaneously (sc) (7×10^5 cells in a volume of […]) into the right flank of each female BALB/c mouse. After the tumour volume reached ˜100 mm^3, the mice were randomised into two groups (n=4/group) and given vehicle (1% CMC in water), or compound 1 (150 mg/kg) once daily by oral administration (QD PO). […] The level of phosphorylated RB (p-S807/11) was also found to be reduced in the EMT6 tumours collected two hours post-final dose, confirming CDK4/6 inhibition (FIG. 1B). A reduction in the […], PDL-1, in the spleen samples of the mice isolated two hours post-final dose was also observed, indicating the immunotherapeutic potential of compound 1 (FIG. 1C).

For data set [3], the system named is EMT6 triple-negative breast cancer cells. Nature of the data set: In vivo anti-tumour activity in mice with a breast cancer cell syngeneic allograft. The settings on record: 150 mg/kg QD PO. The procedure:
as §1, §3

The subject of data set [4] is phosphorylated RB (p-S807/11). The data set is described as follows: Phosphorylated RB level in EMT6 tumours of treated mice. Conditions: EMT6 tumours collected two hours post-final dose, 150 mg/kg QD PO. The data set is classed as in vivo, mouse (female BALB/c). As for the experimental part:
as §3

The subject of data set [5] is CT26.WT colorectal cancer cells. The data set is described as follows: In vivo anti-tumour activity in mice with a colorectal cancer cell syngeneic allograft (first experiment). Also noted: species or system mouse (female BALB/c). As for the experimental part: as §1
Similarly, mice bearing CT26.WT colorectal cancer cells were matched and randomised to vehicle or treatment groups (n=8/group). Female BALB/c mice with mean tumour volume ˜100 mm^3 were given vehicle (distilled water QD PO), compound 1 (100 mg/kg QD PO), an anti-PD1 antibody (RMP1-14-derived mouse monoclonal antibody; Assay Matrix Pty Ltd, Ivanhoe North, VIC, Australia), 200 μg/mouse/week by intraperitoneal (ip) administration) or compound 1 plus anti-PD-1 antibody.

Take `CCN1CCN(Cc2ccc(Nc3ncc(F)c(-c4sc(NC5CCCC5)nc4C)n3)nc2)CC1` [Compound 1, N-cyclopentyl-5-(2-((5-((4-ethylpiperazin-1-yl)methyl)pyridin-2-yl)amino)-5-fluoropyrimidin-4-yl)-4-methylthiazol-2-amine]: in data set [1] (100 mg/kg QD PO alone, day 15 of dosing), the “TGI, used alone” value was found to be 77%. For the same compound, in data set [1] (100 mg/kg QD PO plus anti-PD-1 antibody (150 g/mouse/week ip), day 15 of dosing), the “TGI, combination with anti-PD-1 antibody” value amounted to 91%. The “anti-tumour efficacy of combination compared with anti-PD-1 alone” value in data set [1] (compound 1 plus anti-PD-1 antibody, p=0.03) is on record as “more effective”. The “level of immune markers CD3+, CD4+, CDK8+ and CD45+ T-cells” value in data set [2] is reported as “increased level”. The “level of immune checkpoint protein ligand PDL-1” value in the data set with PDL-1 is “reduction”. Further, the “weight loss or overt toxicity” value in data set [3] (EMT6-bearing mice, throughout the study) is given as “No significant weight loss or any overt toxicity”. Also, the “level of phosphorylated RB (p-S807/11)” value in data set [4] is given as “reduced”. The “tumour growth inhibition (% TGI), used alone” value in data set [5] (100 mg/kg QD PO alone, day 21 of dosing) came out at 75%. In addition, in data set [5] (100 mg/kg QD PO plus anti-PD-1 antibody 200 μg/mouse/week ip, day 21 of dosing), the “tumour growth inhibition (% TGI), combination with anti-PD-1 antibody” value came to 91%. Besides, the “survival of the mice, combination with anti-PD-1 antibody” value in data set [5] (100 mg/kg QD PO plus anti-PD-1 antibody, p<0.001) is “significantly prolong”. The “survival of the mice, single agent” value in data set [5] (100 mg/kg QD PO, p<0.001) was “significantly prolong”.
Take `CNc1nc(C)c(-c2nc(Nc3ccc(CN4CCN(C(C)C)CC4)cn3)ncc2F)s1` [Compound 12, 5-(5-fluoro-2-((5-((4-isopropylpiperazin-1-yl)methyl)pyridin-2-yl)amino)pyrimidin-4-yl)-N,4-dimethylthiazol-2-amine]: the “tumour growth inhibition (% TGI)” value in data set [3] (EMT6 allograft, final day of tumour measurement) was found to be 47%.
